Consider two molecules from PMC12567398, “New Assay Systems to Characterize the Broad-Spectrum Antiherpesviral and Non-Herpesviral Activity of Cyclin-Dependent Kinase (CDK) 8 Inhibitors” (Pharmaceuticals, 2025).

Data set [1] has as its system Epstein–Barr virus P3HR-1. The data set can be described thus: EBV lytic assay in TPA-induced P3HR-1 cells, qPCR. The conditions noted are these: human gammaherpesvirus 4, P3HR-1; Table S1; read-out: antiviral EC50, EBV. In kind it is cell-based.
The test system of data set [2] is VZV. Set-up: method as in ref 35, 38 (a number printed in a supplementary file, which may have a reference list of its own: not looked up in the article's list). The conditions noted are these: Table S1; read-out: antiviral EC50, VZV; cited from earlier work.
The subject of data set [3] is HHV-6A-GFP. The data set can be described thus: HHV-6A plaque reduction assay in HFFs. The conditions noted are these: Human betaherpesvirus 6A.
Data set [4] is described as follows: Neutral Red uptake cell viability assay, HFF. The conditions noted are these: human.
For data set [5], the system named is HCMV. More on the design: method as in ref 35, 38 (a number printed in a supplementary file, which may have a reference list of its own: not looked up in the article's list). The following applies: Table S1; read-out: antiviral EC50, HCMV; cited from earlier work.
Data set [6] can be described thus: Neutral Red uptake cell viability assay, Vero. The conditions noted are these: African green monkey, CC50, Vero (Fig 4F).
The test system of data set [7] is HSV-1. More on the design: method as in ref 35, 38 (a number printed in a supplementary file, which may have a reference list of its own: not looked up in the article's list). The following applies: Table S1; read-out: antiviral EC50, HSV-1; cited from earlier work.
The test system of data set [8] is MHV-68-Luc. Put plainly: MHV-68-Luc luciferase reporter assay. In kind it is cell-based, murine herpesvirus 68. The conditions noted are these: Murine herpesvirus.
Data set [9] concerns MCMV. More on the design: method as in ref 35, 38 (a number printed in a supplementary file, which may have a reference list of its own: not looked up in the article's list). The following applies: Table S1; read-out: antiviral EC50, MCMV; cited from earlier work.
Data set [10] is described as follows: Neutral Red uptake cell viability assay, MEF. The conditions noted are these: mouse.
Data set [11] can be described thus: Neutral Red uptake cell viability assay, Caco-2. The conditions noted are these: human.
Data set [12] relates to JCPyV. Set-up: method as in ref 35, 38 (a number printed in a supplementary file, which may have a reference list of its own: not looked up in the article's list). The conditions noted are these: Table S1; read-out: antiviral EC50, JCPyV; cited from earlier work.
In data set [13] the test system is HHV-6A. Set-up: method as in ref 35 (a number printed in a supplementary file, which may have a reference list of its own: not looked up in the article's list). The conditions noted are these: Table S1; J-Jhan cells; read-out: antiviral EC50, HHV-6A (J-Jhan); cited from earlier work.
Data set [14] deals with vaccinia virus VV IHD-5. The data set can be described thus: microbe, parasite or virus in culture. In kind it is cell-based. The following applies: Orthopoxvirus vaccinia, read-out: antiviral EC50, VV.
Data set [15] in a line: Neutral Red uptake / Alamar Blue cell viability assay, 293T. The conditions noted are these: human.
The subject of data set [16] is RCMV. Set-up: method as in ref 35, 38 (a number printed in a supplementary file, which may have a reference list of its own: not looked up in the article's list). The following applies: Table S1; read-out: antiviral EC50, RCMV; cited from earlier work.
The test system of data set [17] is KSHV. Set-up: method as in ref 35, 38 (a number printed in a supplementary file, which may have a reference list of its own: not looked up in the article's list). The following applies: Table S1; read-out: antiviral EC50, KSHV; cited from earlier work.
The subject of data set [18] is EHV-1-GFP. The data set can be described thus: EHV-1-GFP antiviral assay, GFP fluorometry. In kind it is cell-based, equine herpesvirus 1. The following applies: COS-7.
Data set [19] can be described thus: in vitro. The conditions noted are these: human.
For data set [20], the system named is HAdV. Set-up: method as in ref 35, 38 (a number printed in a supplementary file, which may have a reference list of its own: not looked up in the article's list). The following applies: Table S1; read-out: antiviral EC50, HAdV; cited from earlier work.
Data set [21] concerns SARS-CoV-2 d6-YFP.
Data set [22] deals with ChCMV. More on the design: method as in ref 35, 38 (a number printed in a supplementary file, which may have a reference list of its own: not looked up in the article's list). The conditions noted are these: Table S1; read-out: antiviral EC50, ChCMV; cited from earlier work.
Data set [23] is described as follows: Neutral Red uptake cell viability assay, COS-7. The following applies: African green monkey.
For data set [24], the system named is EHV-1. Put plainly: EHV-1-specific qPCR of virus release into culture medium. Type of data set: cell-based, equine herpesvirus 1.
The subject of data set [25] is RhCMV. Set-up: method as in ref 35, 38 (a number printed in a supplementary file, which may have a reference list of its own: not looked up in the article's list). The conditions noted are these: Table S1; read-out: antiviral EC50, RhCMV; cited from earlier work.
For data set [26], the system named is SARS-CoV-2 d6-YFP. The data set can be described thus: microbe, parasite or virus in culture.
The test system of data set [27] is Caco-2 cells. Put plainly: Neutral Red uptake cell viability assay, Caco-2. The conditions noted are these: read-out: mean CC50; Caco-2 (Fig 7D).

Read-outs that look alike come from different tables or passages of the source.

As to `CN(C)C(=O)Cn1cc(-c2ccc(-c3cncc4ccccc34)cc2)cn1` [BI-1347], the EC50 in [1] is 5500 ± 4200 nM; in data set [2], 26000 ± 10000 nM; in [3] (read-out: Antiviral mean EC50 based on plaque assay measurements) it was 200 ± 200 nM; in data set [3] (read-out: antiviral EC50, HHV-6A (HFF)), 300 ± 200 nM; in [5], 0.9 ± 0.7 nM; in [7] it was above 50000 nM. The EC50 is 0.1 ± 0.1 nM in data set [8] (COS-7, read-out: antiviral EC50, MHV-68 (COS-7), Table S1, COS-7); 0.5 ± 0.03 nM in [8] (Vero, read-out: antiviral EC50, MHV-68 (Vero), Table S1, Vero); 40 ± 20 nM in data set [8] (read-out: antiviral EC50, MHV-68 (HFF), Table S1, HFF); 6 ± 2 nM in data set [8] (read-out: antiviral EC50, MHV-68 (MEF), Table S1, MEF); 20 ± 10 nM in data set [9]; 700 ± 1600 nM in [12]. Further, the EC50 in data set [13] was above 50000 nM; in data set [14], above 50000 nM; in data set [16], 2 ± 4 nM; in data set [17] it was 300 ± 600 nM; in data set [18] it was 80 nM; in data set [20] it was 50 ± 100 nM. Besides, the EC50 was 10 ± 20 nM in data set [22]; below 3 nM in data set [24] (EHV-1, qPCR / COS-7, read-out: EC50); 20 ± 50 nM in data set [24] (Equus caballus); 30 ± 30 nM in data set [24] (Equus caballus, read-out: antiviral EC50, EHV-1 (HFF)); 0.4 ± 0.5 nM in data set [25]; at least 15400 nM in data set [26] (Severe acute respiratory syndrome coronavirus 2, Caco-2, 30 h, read-out: Antiviral mean EC50 based on YFP measurements). The EC50 in [26] (Severe acute respiratory syndrome coronavirus 2, Caco-2, read-out: antiviral EC50, SARS-CoV-2) was determined as 22800 ± 3200 nM. The CC50 is above 50000 nM in data set [4] (CC50, HFF, listed with qPCR / HFF (Fig 1E)); above 100000 nM in [4] (mean CC50, HFF, HHV-6A assay conditions (Fig 2D)); above 100000 nM in data set [19]. The CC50 at 7 d in data set [6] and in data set [10] was above 100000 nM in each case. This molecule displayed a CC50 at 3 d in data set [11] above 100000 nM. Besides, the CC50 at 2 d in data set [15] stood at 93000 ± 5000 nM. In [21] (in words), the “CDK8 inhibitor sensitivity of SARS-CoV-2 in Caco-2 cells” value is “low level of sensitivity”. The CC50 at 4 d was above 100000 nM in data set [23] (CC50, COS-7 (Fig 4F)); above 50000 nM in data set [23] (CC50, COS-7, listed with GFP / COS-7 (Fig 1E)); above 50000 nM in data set [23] (CC50, COS-7, listed with qPCR / COS-7 (Fig 1E)).
As to `O=c1nc(NO)ccn1[C@@H]1O[C@H](CO)[C@@H](O)[C@H]1O` [EIDD-1931], the CC50 in data set [27] is above 100000 nM. For the same molecule, in data set [21] (read-out: Antiviral mean EC50 based on YFP measurements, SARS-CoV-2 d6-YFP, Caco-2, […]), the EC50 came out at 4100 ± 1400 nM.
